{"source": "patent US11987788B2", "about": "“Methods and compositions for changing the composition of the skin microbiome using complex mixtures of bacterial strains” (S-Biomedic NV, priority 2015, dated 2024)", "key": {"[1]": {"system": "Propionibacterium acnes (ATCC 6919)", "experiment": "Minimum Inhibitory Concentration Assay", "assay_type": "cell-based", "settings": "ATCC 6919 (A1), visible growth, duplicate", "procedure": "(§1) The Minimum Inhibitory Concentration Assay assessed the in vitro antimicrobial potency of the test compound. […] 4 compounds were tested, which are commonly used in cosmetics or to treat acne for their effect on the growth of different P. acnes strains. The 4 tested compounds were glycolic acid, salicylic acid, lactic acid and hyaluronic acid. The first 3 are commonly used in products to treat acne, while the last one is a commonly used cosmetic compound. Any other compound can be tested the same way. The test substance was dissolved in water or DMSO (for salicylic acid) and 4 μl of the test substance was added to 196 μl of growth medium resulting in the highest tested compound concentration. Then this concentration was diluted by 2-fold serial titrations, for a total of 11 concentrations and the final vehicle concentration was 2 percent. Following incubation, the test plate was visually examined and each well was scored for growth or complete inhibition of growth; then the MIC was recorded. Each test substance was evaluated in duplicate. Vehicle-control and an active reference agent (clindamycin) were used as blank and positive controls, respectively. The following three strains were used to assess whether strain specific differences in the tolerance to these compounds could be observed: • Propionibacterium acnes (ATCC 11827)—A5 • Propionibacterium acnes (ATCC 29399) • Propionibacterium acnes (ATCC 6919)—A1 The final concentrations for each tested compound were: • 1. […] Lactic acid: 100% (13.4M): […]"}, "[2]": {"system": "Propionibacterium acnes (ATCC 29399)", "experiment": "Minimum Inhibitory Concentration Assay", "assay_type": "cell-based", "settings": "duplicate", "procedure": "as §1"}, "[3]": {"system": "Propionibacterium acnes (ATCC 11827)", "experiment": "Minimum Inhibitory Concentration Assay", "assay_type": "cell-based", "settings": "ATCC 11827 (A5), visible growth, duplicate", "procedure": "as §1"}, "acne": {"system": "acne", "settings": "McLane, 2001; cited from earlier work"}, "facial acne vulgaris": {"system": "facial acne vulgaris", "experiment": "Pilot clinical study, lesion count and irritation evaluated by a dermatologist", "assay_type": "in vivo, human"}, "Seb E6/E7 sebocytes [4]": {"system": "Seb E6/E7 sebocytes", "experiment": "Neutral lipid staining with HCS LipidTOX (lipid production)", "assay_type": "cell-based", "settings": "72 h stimulation; whole-well 5× and individual-cell 20× analysis", "procedure": "An image at 5× magnification was taken from each well and then the relative fluorescence intensity quantified. Each condition was measured in triplicates. As a control, the cells were either unstimulated (blank) or stimulated with cis-9, cis-12 linoleic acid (not shown).\nAs a negative control, a non-stimulated blank was used and as positive control, the cells were stimulated for lipogenesis with cis-9, cis-12 linoleic acid.\nSeb E6/E7 cells, which were seeded in 96-well plates and stimulated as described above were then analyzed for the induction lipid production. After 72 h of stimulation, the cells were stained with HCS LipidTOX deep red neutral lipid stain from Thermo Fisher (product no. H34477) according to the manufacturer's instructions. A final dilution of 1:450 of HCS LipidTOX dye in PBS was used for the staining. The amount of fluorescence was then evaluated using an inverted fluorescence microscope. In one approach, a complete well was imaged at 5× magnification and the total fluorescence in the image was quantified. A clear dose-dependent induction of lipid production was seen. […]\nAlternatively, the fluorescent signal of individual cells, which were randomly selected from a higher magnification images, were quantified. 10 cells per image and 3 wells per condition were quantified. […]"}, "Seb E6/E7 sebocytes [5]": {"system": "Seb E6/E7 sebocytes"}, "P. acnes": {"system": "P. acnes", "settings": "Allgaier et al., 1985; cited from earlier work"}, "[6]": {"settings": "Cutibacterium acnes, ATCC29399, visible growth"}}, "note": "Like-named read-outs stand apart in the source and are kept apart here. No end group written: not given here.", "data": [{"compound": "CC(O)C(=O)O", "note": "(centres unmarked) [lactic acid]", "values": [{"measurement": "MIC (inhibition of growth)", "setting": "[1]", "result": 0.2, "unit": "%"}, {"measurement": "MIC (inhibition of growth)", "setting": "[2]; visible growth", "result": 0.6, "unit": "%"}, {"measurement": "MIC (inhibition of growth)", "setting": "[3]", "result": 0.2, "unit": "%"}]}, {"compound": "O=C(O)c1ccccc1O", "note": "[salicylic acid]", "values": [{"measurement": "MIC", "setting": "[1]; Cutibacterium acnes, ATCC6919", "result": "> 6", "unit": "mM"}, {"measurement": "MIC", "setting": "[2]; [6]", "result": "> 6", "unit": "mM"}, {"measurement": "MIC", "setting": "[3]; Cutibacterium acnes, ATCC11827", "result": "> 6", "unit": "mM"}]}, {"compound": "CC1=C(/C=C/C(C)=C/C=C/C(C)=C\\C(=O)O)C(C)(C)CCC1", "note": "[Isotretinoin]", "values": [{"measurement": "side effects", "setting": "acne", "result": "causes skin irritation and also has teratogenic effects"}]}, {"compound": "O=C(OOC(=O)c1ccccc1)c1ccccc1", "note": "[Benzoyl Peroxide, Benzoyl peroxide]", "values": [{"measurement": "subjects with reduced lesions", "setting": "facial acne vulgaris; end of week 1, of 10 subjects", "result": 4, "unit": "subjects"}, {"measurement": "subjects improved (dermatologist evaluation, lesions)", "setting": "facial acne vulgaris; week 1 (day 7), end of 7-day Benzoyl Peroxide phase, 10 subjects", "result": 40, "unit": "%"}]}, {"compound": "hyaluronic acid", "values": [{"measurement": "MIC", "setting": "[1]", "result": "> 6e-05", "unit": "mM"}, {"measurement": "MIC", "setting": "[2]; visible growth", "result": "> 6e-05", "unit": "mM"}, {"measurement": "MIC", "setting": "[3]", "result": "> 6e-05", "unit": "mM"}]}, {"compound": "O=C(O)CO", "note": "[Glycolic acid, glycolic acid]", "values": [{"measurement": "MIC", "setting": "[1]; Cutibacterium acnes, ATCC6919", "result": 18, "unit": "mM"}, {"measurement": "MIC", "setting": "[2]; [6]", "result": 60, "unit": "mM"}, {"measurement": "MIC", "setting": "[3]; Cutibacterium acnes, ATCC11827", "result": 18, "unit": "mM"}]}, {"compound": "CCCCC/C=C\\C/C=C\\CCCCCCCC(=O)O", "note": "[cis-9, cis-12 linoleic acid]", "values": [{"measurement": "induction of lipogenesis (relative fluorescence of neutral lipids)", "setting": "Seb E6/E7 sebocytes [4]", "result": "induce lipogenesis"}, {"measurement": "cytotoxic effect (low XTT metabolic activity with high LDH activity)", "setting": "Seb E6/E7 sebocytes [5]; 5 days exposure, different concentrations, triplicates", "result": "no significant effect"}]}, {"compound": "CCCCC/C=C\\C=C\\CCCCCCCCC(=O)O", "note": "[trans-10, cis 12 linoleic acid, trans-10, cis-12 linoleic acid]", "values": [{"measurement": "induction of lipogenesis (relative fluorescence of neutral lipids)", "setting": "Seb E6/E7 sebocytes [4]", "result": "dose-dependent induction of lipogenesis"}, {"measurement": "cytotoxic effect (low XTT metabolic activity with high LDH activity)", "setting": "Seb E6/E7 sebocytes [5]", "result": "clear dose-dependent cytotoxic effect"}]}, {"compound": "Epidermin: lantibiotic, antibiotic-like peptide naturally produced by S. epidermidis (IASKFICTPGCAKTGSFNSYCC; also: lantibiotic: lanthionine-type bridges, places not given here; UniProt P08136 31-52, looked up)", "values": [{"measurement": "activity against P. acnes", "setting": "P. acnes", "result": "highly active"}]}]}
